In PubChem BioAssay (NCI) one finds TGI and GI50 data, which are given here for nine compounds.

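Cultured in 96-well plates, cells were exposed to test compound for 48 hours across five concentrations. GI50 = concentration required for 50% inhibition of growth. At the TGI there is no net growth.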

Test systems include CAKI-1 renal; MDA-MB-435; NCI-H226 lung; NCI-H460 lung; OVCAR-8 ovarian; SF-268 CNS; SK-MEL-2 melanoma; SR leukemia; T-47D breast; UACC-257 melanoma.
Common to all, as to test: NCI anticancer screen, dose series, 48 h

Regarding `CN1CCC(n2[nH]c(-c3ccccc3)c(Cc3ccccc3)c2=O)CC1`, the TGI with CAKI-1 renal, in the assay on MDA-MB-435, in the assay on NCI-H226 lung, in the assay with NCI-H460 lung, in the assay with OVCAR-8 ovarian and in the assay with SF-268 CNS was over 100 µM each time. The TGI in the assay on SK-MEL-2 melanoma, in the assay on SR leukemia, in the assay with T-47D breast and in the assay with UACC-257 melanoma was over 100 µM throughout.

With `Cc1ccc(F)cc1NC(=O)c1cc(Cl)ccc1Nc1ccccc1`, the GI50 with CAKI-1 renal is over 100 µM; in the assay with MDA-MB-435, over 100 µM; in the assay on NCI-H226 lung it was over 100 µM; in the assay on NCI-H460 lung, over 100 µM; in the assay with OVCAR-8 ovarian, 58.8 µM; with SF-268 CNS, over 100 µM. For the same compound, the GI50 with SK-MEL-2 melanoma, with SR leukemia, in the assay on T-47D breast and in the assay with UACC-257 melanoma was over 100 µM in each case. For the same compound, the TGI in the assay with CAKI-1 renal, in the assay with MDA-MB-435, in the assay on NCI-H226 lung, in the assay with NCI-H460 lung, with OVCAR-8 ovarian and with SF-268 CNS was over 100 µM each time. Also, the TGI in the assay with SK-MEL-2 melanoma, in the assay with SR leukemia, in the assay on T-47D breast and in the assay with UACC-257 melanoma was over 100 µM throughout.

As for `O=[N+]([O-])c1cccc(-c2cc(-c3cc(Br)ccc3O)[nH]n2)c1`, the GI50 was 1.81 µM in the assay on CAKI-1 renal; 1.77 µM in the assay on MDA-MB-435; 3.66 µM in the assay on NCI-H226 lung; 1.9 µM with NCI-H460 lung; 2.89 µM in the assay with OVCAR-8 ovarian; 2.86 µM in the assay on SF-268 CNS. For the same compound, the GI50 is 1.99 µM with SK-MEL-2 melanoma, 1.66 µM in the assay on SR leukemia, 2.64 µM with T-47D breast and 2.5 µM in the assay with UACC-257 melanoma. Moreover, the TGI with CAKI-1 renal was 5.17 µM; in the assay on MDA-MB-435, 4.58 µM; with NCI-H226 lung, 27.2 µM; in the assay on NCI-H460 lung, 10.4 µM; with OVCAR-8 ovarian it was 10.5 µM; in the assay on SF-268 CNS, 12.7 µM. Further, the TGI stood at 6.53 µM in the assay with SK-MEL-2 melanoma, 4.8 µM with SR leukemia, 8.84 µM in the assay with T-47D breast and 6.49 µM with UACC-257 melanoma.

For `COc1ccc(C(=O)CC(c2ccc(OC)c(OC)c2)c2c(O)c3ccccc3oc2=O)cc1OC` (stereo not drawn), the TGI in the assay on CAKI-1 renal, in the assay on MDA-MB-435, with NCI-H226 lung, with NCI-H460 lung, in the assay with OVCAR-8 ovarian and in the assay on SF-268 CNS was over 100 µM each time. For the same compound, the TGI with SK-MEL-2 melanoma, in the assay with SR leukemia, with T-47D breast and in the assay with UACC-257 melanoma was over 100 µM in each case.

`CC[C@@]1(O)C(=O)OCc2c1cc1n(c2=O)Cc2cc3c(NC(=O)CN)cccc3nc2-1`: the TGI is 2.14 µM in the assay on CAKI-1 renal; 17.3 µM with MDA-MB-435; 3.79 µM in the assay with NCI-H226 lung; 2.94 µM with NCI-H460 lung; over 43.8 µM in the assay on OVCAR-8 ovarian; over 39.8 µM in the assay on SF-268 CNS. The TGI is 14.8 µM in the assay with SK-MEL-2 melanoma, under 0.0121 µM with SR leukemia, 0.744 µM with T-47D breast and 13.2 µM with UACC-257 melanoma.

In the case of `Cc1ccc(C[P+](c2ccccc2)(c2ccccc2)c2ccccc2)cc1`, the GI50 was 0.486 µM with CAKI-1 renal; 0.515 µM in the assay on MDA-MB-435; 1.73 µM with NCI-H226 lung; 0.76 µM with NCI-H460 lung; 0.781 µM with OVCAR-8 ovarian; 2.7 µM with SF-268 CNS. Moreover, the GI50 in the assay with SK-MEL-2 melanoma was 2.12 µM; in the assay on SR leukemia, 1.04 µM; in the assay on T-47D breast, 0.314 µM; in the assay with UACC-257 melanoma, 0.267 µM. The TGI in the assay on CAKI-1 renal is 17.3 µM; in the assay on MDA-MB-435, 5.4 µM; with NCI-H226 lung, over 25.8 µM; in the assay with NCI-H460 lung it was 6.99 µM; in the assay on OVCAR-8 ovarian, 4.65 µM; in the assay on SF-268 CNS, over 57.8 µM. For the same compound, the TGI in the assay on SK-MEL-2 melanoma was over 100 µM; in the assay on UACC-257 melanoma, 3.56 µM.

Consider `COc1cc2ncn(-c3cc(OCc4ccccc4S(C)(=O)=O)c(C#N)s3)c2cc1OC`, for which the GI50 in the assay with CAKI-1 renal was over 25 µM; with MDA-MB-435, over 25 µM; in the assay on NCI-H226 lung it was over 25 µM; with NCI-H460 lung, over 25 µM; in the assay with OVCAR-8 ovarian it was over 23.1 µM; with SF-268 CNS it was over 22.7 µM. Also, the GI50 in the assay with SK-MEL-2 melanoma is over 23.4 µM; in the assay with SR leukemia it was over 25 µM; in the assay with T-47D breast, over 25 µM; in the assay on UACC-257 melanoma, over 25 µM. Further, the TGI in the assay with CAKI-1 renal, with MDA-MB-435, with NCI-H226 lung, with NCI-H460 lung, in the assay with OVCAR-8 ovarian and in the assay with SF-268 CNS was over 25 µM each time. Moreover, the TGI in the assay with SK-MEL-2 melanoma, with SR leukemia, in the assay with T-47D breast and in the assay on UACC-257 melanoma was over 25 µM throughout.

With `Cc1ccc(/C(=C/C=C(C#N)C#N)Sc2ccccn2)cc1`, the GI50 with CAKI-1 renal is 5.62 µM; in the assay on MDA-MB-435, 4.79 µM; with NCI-H226 lung, 2.53 µM; with NCI-H460 lung, 4.62 µM; with OVCAR-8 ovarian, 7.41 µM; in the assay on SF-268 CNS, 3.37 µM. The GI50 in the assay with SK-MEL-2 melanoma is 7.15 µM; in the assay on SR leukemia, 3.06 µM; with T-47D breast, 4 µM; in the assay on UACC-257 melanoma, 14.6 µM. Besides, the TGI with CAKI-1 renal worked out at 11.8 µM; with MDA-MB-435 it was 13.3 µM; with NCI-H226 lung, 7.06 µM; in the assay with NCI-H460 lung, 21 µM; in the assay on OVCAR-8 ovarian it was 24.3 µM; in the assay with SF-268 CNS it was 12.3 µM. In addition, the TGI with SK-MEL-2 melanoma was 35.6 µM; in the assay with SR leukemia it was 10.4 µM; in the assay on T-47D breast, over 24.7 µM; with UACC-257 melanoma, 28.1 µM.

With `O=C(NC1(C(=O)O)CC1c1ccccc1)c1ccccc1` (stereo not drawn), the TGI with CAKI-1 renal, in the assay on MDA-MB-435, with NCI-H226 lung, with NCI-H460 lung, with OVCAR-8 ovarian and in the assay on SF-268 CNS was over 100 µM in each case. Moreover, the TGI in the assay with SK-MEL-2 melanoma, in the assay on SR leukemia, with T-47D breast and in the assay with UACC-257 melanoma was over 100 µM throughout.
